{"source": "patent US7211424B1", "about": "“Mammalian Subtilisin/kexin isozyme SKI-1: a proprotein convertase with a unique cleavage specificity” (Institut de Recherches Cliniques de Montreal, priority 1999, dated 2007)", "molecules": {"B1": {"name": "BTMD-hSKI-1 (Homo sapiens) (protein)", "chain": "RAIPRQVAQTLQADVLWQMGYTGANVRVAVFDTGLSEKHPHFKNVKERTNWTNERTLDDGLGHGTFVAGVIASMRECQGFAPDAELHIFRVFTNNQVSYTSWFLDAFNYAILKKIDVLNLSIGGPDFMDHPFVDKVWELTANNVIMVSAIGNDGPLYGTLNNPADQMDVIGVGGIDFEDNIARFSSRGMTTWELPGGYGRMKPDIVTYGAGVRGSGVKGGCRALSGTSVASPVVAGAVTLLVSTVQKRELVNPASMKQALIASARRLPGVNMFEQGHGKLDLLRAYQILNSYKPQASLSPSYIDLTECPYMWPYCSQPIYYGGMPTVVNVTILNGMGVTGRIVDKPDWQPYLPQNGDNIEVAFSYSSVLWPWSGYLAISISVTKKAASWEGIAQGHVMITVASPAETESKNGAEQTSTVKLPIKVKIIPTPPRSKRVLWDQYHNLRYPPGYFPRDNLRMKNDPLDWNGDHIHTNFRDMYQHLRSMGYFVEVLGAPFTCFDASQYGTLLMVDSEEEYFPEEIAKLRRDVDNGLSLVIFSDWYNTSVMRKVKFYDENTRQWWMPDTGGANIPALNELLSVWNMGFSDGLYEGEFTLANHDMYYASGCSIAKFPEDGVVITQTFKDQGLEVLKQETAVVENVPILGLYQIPAEGGGRIVLYGDSNCLDDSHRQKDCFWLLDALLQYTSYGVTPPSLSHSGNRQRPPSGAGSVTPERMEGNHLHRYSKVLEAHLGDPKPRPLPACPRLSWAKPQPLNETAPSNLWKHQKLLSIDLDKVVLPNFRSNRPQVRPLSPGESGAWDIPGGIMPGRYNQE"}, "B2": {"name": "˜14 kDa peptide: ˜14 kDa N-terminal fragment of the SKI-1 prosegment, major secreted form (protein)", "chain": "GKKHLGDRLEKKSFEKAPCPGCSHLTLKVEFSSTVVEYEYIVAFNGYFTAKARNSFISSALKSSEVDNWRIIPRNNPSSDYPSDFEVIQIKEKQKAGLLTLEDHPNIKRVTPQRKVFRSL"}}, "key": {"SKI-1 [1]": {"target": "T1, SKI-1 (Homo sapiens, UniProt Q14703)", "T1 sequence (Q14703 187-1052)": "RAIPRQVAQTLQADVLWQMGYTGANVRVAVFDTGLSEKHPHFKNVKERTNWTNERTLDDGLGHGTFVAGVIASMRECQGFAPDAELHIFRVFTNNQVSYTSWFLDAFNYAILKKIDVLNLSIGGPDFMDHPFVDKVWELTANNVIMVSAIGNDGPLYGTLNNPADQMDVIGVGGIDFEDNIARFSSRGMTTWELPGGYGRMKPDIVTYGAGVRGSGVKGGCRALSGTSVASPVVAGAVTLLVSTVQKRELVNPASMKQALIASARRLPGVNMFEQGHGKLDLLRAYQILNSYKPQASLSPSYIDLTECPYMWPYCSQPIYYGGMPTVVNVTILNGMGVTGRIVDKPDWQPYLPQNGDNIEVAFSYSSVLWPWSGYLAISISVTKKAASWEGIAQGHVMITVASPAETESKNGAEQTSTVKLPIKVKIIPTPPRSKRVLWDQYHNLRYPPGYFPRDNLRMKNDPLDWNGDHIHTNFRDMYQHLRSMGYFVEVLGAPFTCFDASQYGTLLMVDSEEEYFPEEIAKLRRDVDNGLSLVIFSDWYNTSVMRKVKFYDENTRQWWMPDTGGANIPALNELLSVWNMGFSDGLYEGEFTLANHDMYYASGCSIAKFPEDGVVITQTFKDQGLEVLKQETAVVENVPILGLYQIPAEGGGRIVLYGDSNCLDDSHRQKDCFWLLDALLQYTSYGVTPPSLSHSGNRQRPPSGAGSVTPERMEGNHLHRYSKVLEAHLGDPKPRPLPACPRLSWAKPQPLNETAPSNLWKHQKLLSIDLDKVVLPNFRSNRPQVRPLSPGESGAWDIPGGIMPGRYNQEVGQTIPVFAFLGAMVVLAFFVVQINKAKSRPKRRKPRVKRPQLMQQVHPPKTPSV", "conditions": "previously established (ref. 10); cited from earlier work"}, "SKI-1 [2]": {"target": "T2, SKI-1 (Homo sapiens, UniProt Q14703)", "T2 sequence (Q14703 187-998 limits assumed)": "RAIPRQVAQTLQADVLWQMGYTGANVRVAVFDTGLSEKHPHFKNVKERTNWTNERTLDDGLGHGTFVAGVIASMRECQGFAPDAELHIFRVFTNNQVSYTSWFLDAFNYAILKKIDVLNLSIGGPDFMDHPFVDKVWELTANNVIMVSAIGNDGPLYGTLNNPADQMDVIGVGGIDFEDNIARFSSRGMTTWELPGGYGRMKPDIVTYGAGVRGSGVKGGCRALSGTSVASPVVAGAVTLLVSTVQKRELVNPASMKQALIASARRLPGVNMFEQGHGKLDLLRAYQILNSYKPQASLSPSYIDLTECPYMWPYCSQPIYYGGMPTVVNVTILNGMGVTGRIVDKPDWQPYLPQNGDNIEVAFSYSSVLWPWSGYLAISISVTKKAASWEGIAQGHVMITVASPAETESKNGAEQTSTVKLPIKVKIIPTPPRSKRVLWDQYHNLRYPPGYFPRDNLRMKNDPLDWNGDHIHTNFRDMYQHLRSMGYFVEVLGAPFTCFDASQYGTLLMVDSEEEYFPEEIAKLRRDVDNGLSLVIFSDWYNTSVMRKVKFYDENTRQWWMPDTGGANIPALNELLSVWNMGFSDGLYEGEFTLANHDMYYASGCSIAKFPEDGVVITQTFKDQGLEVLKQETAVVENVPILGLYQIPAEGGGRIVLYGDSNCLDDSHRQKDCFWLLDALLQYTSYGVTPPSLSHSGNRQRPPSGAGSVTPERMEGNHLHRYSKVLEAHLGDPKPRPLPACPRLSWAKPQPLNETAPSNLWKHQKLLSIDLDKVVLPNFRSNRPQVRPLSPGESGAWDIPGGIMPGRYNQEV", "assay_type": "biochemical"}, "SKI-1 [3]": {"target": "T1, SKI-1", "assay": "Example 6: synthetic peptides examined as possible substrates of recombinant SKI-1", "assay_type": "biochemical", "parameters": "made in house", "source_text": "A large number of synthetic peptides based on potential cleavage sites in the hSKI-1 prodomain, proBDNF and the loop region of SREBP-2 were synthesized.\nThese peptides were examined as possible substrates of SKI-1."}, "[4]": {"substrate": "CC(C)C[C@H](NC(=O)[C@@H](NC(=O)[C@H](CO)NC(=O)[C@H](CCCNC(=N)N)NC(=O)CNC(=O)[C@H](CO)NC(=O)CNC(=O)[C@H](CO)NC(=O)[C@H](Cc1c[nH]cn1)NC(=O)[C@@H]1CCCN1C(=O)[C@H](Cc1c[nH]cn1)NC(=O)[C@H](CCC(N)=O)NC(=O)[C@H](CC(=O)O)NC(=O)[C@H](CO)NC(=O)[C@H](CC(=O)O)NC(=O)[C@H](Cc1c[nH]cn1)NC(=O)[C@H](C)NC(=O)CNC(=O)CN)C(C)C)C(=O)N[C@@H](CO)C(=O)N[C@@H](Cc1ccccc1)C(=O)N[C@@H](CCC(=O)O)C(=O)N[C@@H](CO)C(=O)NCC(=O)N[C@@H](CO)C(=O)NCC(=O)NCC(=O)O", "assay": "purified protein, by the assay type", "conditions": "other: BTMD-SKI-1 medium, times giving 5–30% substrate hydrolysis; averages of duplicate assays; pH 6.5; 37.0 °C"}, "[5]": {"substrate": "CC(C)C[C@H](NC(=O)[C@H](C)NC(=O)[C@H](CCCNC(=N)N)NC(=O)[C@H](CC(C)C)NC(=O)[C@H](CC(C)C)NC(=O)[C@H](CCCNC(=N)N)NC(=O)[C@H](CCCNC(=N)N)NC(=O)[C@@H](N)CO)C(=O)N[C@@H](CCC(=O)O)C(N)=O", "assay": "purified protein, by the assay type", "conditions": "other: BTMD-SKI-1 medium, times giving 5–30% substrate hydrolysis; averages of duplicate assays; pH 6.5; 37.0 °C"}, "[6]": {"substrate": "CC(C)C[C@H](NC(=O)[C@H](C)NC(=O)[C@H](CCCNC(=N)N)NC(=O)[C@H](CC(C)C)NC(=O)[C@H](CC(C)C)NC(=O)[C@H](CCCNC(=N)N)NC(=O)[C@H](CCCNC(=N)N)NC(=O)[C@H](CO)NC(=O)[C@H](CO)NC(=O)[C@H](Cc1c[nH]cn1)NC(=O)[C@H](CCCNC(=N)N)NC(=O)CNC(=O)[C@@H](NC(=O)[C@H](C)NC(=O)[C@H](Cc1c[nH]cn1)NC(=O)[C@@H](N)Cc1c[nH]c2ccccc12)[C@@H](C)O)C(=O)N[C@@H](CCC(=O)O)C(N)=O", "assay": "purified protein, by the assay type", "conditions": "other: BTMD-SKI-1 medium, times giving 5–30% substrate hydrolysis; averages of duplicate assays; pH 6.5; 37.0 °C"}, "BTMD-hSKI-1": {"target": "T3, BTMD-hSKI-1 (Homo sapiens, UniProt Q14703)", "T3 sequence (Q14703 187-997 limits assumed)": "B1 chain", "assay_type": "biochemical"}}, "note": "Like-named read-outs stand apart in the source and are kept apart here.", "data": [{"molecule": "RGLTT-MCA", "values": [{"measurement": "cleavage of fluorogenic MCA peptides lacking P′ residues", "setting": "SKI-1 [1]", "result": "does not cleave"}]}, {"molecule": "c1cnc2c(c1)ccc1cccnc12", "note": "[O-Phenanthroline, o-phenanthroline]", "values": [{"measurement": "inhibition of the processing of proBDNF by SKI-1", "setting": "SKI-1 [2]; at 1 mM", "result": 25, "unit": "%"}, {"measurement": "inhibition of the processing of proBDNF by SKI-1", "setting": "SKI-1 [2]; overnight 37° C., pH 6.0, PMSF 0.5 mM + pAPMSF 50 μM, o-phenanthroline 5 mM, EDTA 10 mM", "result": "effectively inhibit"}]}, {"molecule": "Ser-Ser-Arg-Arg-Leu-Leu↓Arg-Ala-Ile-Glu [(iv)]", "values": [{"measurement": "cleavage by the recombinant SKI-1", "setting": "SKI-1 [3]", "result": "efficiently cleaved"}]}, {"molecule": "PQRKVFRSLKYAESD [IX]", "values": [{"measurement": "cleavage by the recombinant SKI-1", "setting": "SKI-1 [3]", "result": "efficiently cleaved"}]}, {"molecule": "RSVL-MCA", "values": [{"measurement": "cleavage of fluorogenic MCA peptides lacking P′ residues", "setting": "SKI-1 [1]", "result": "does not cleave"}]}, {"molecule": "RGLT-MCA", "values": [{"measurement": "cleavage of fluorogenic MCA peptides lacking P′ residues", "setting": "SKI-1 [1]", "result": "does not cleave"}]}, {"molecule": "Ser-Gly-Ser-Gly-Arg-Ser-Val-Leu↓Ser-Phe-Glu-Ser [(x)]", "values": [{"measurement": "cleavage by the recombinant SKI-1", "setting": "SKI-1 [3]", "result": "efficiently cleaved"}]}, {"molecule": "B1", "values": [{"measurement": "Km", "setting": "[4]", "result": 124, "unit": "nM*1000"}, {"measurement": "Vmax", "setting": "[4]", "result": "8.33e-06", "unit": "µmol/min"}, {"measurement": "Km", "setting": "[5]", "result": 109, "unit": "nM*1000"}, {"measurement": "Vmax", "setting": "[5]", "result": "1.83e-05", "unit": "µmol/min"}, {"measurement": "Km", "setting": "[6]", "result": 17, "unit": "nM*1000"}, {"measurement": "Vmax", "setting": "[6]", "result": "6.67e-06", "unit": "µmol/min"}]}, {"molecule": "B2", "values": [{"measurement": "inhibitory activity of the RP-HPLC-fractionated native prosegment", "setting": "BTMD-hSKI-1", "result": "not inhibitory"}]}]}
